For this assay, the target named is T1, His-hMAGL (recombinant polyhistidine tagged human MAGL protein) (Homo sapiens, UniProt Q99685).
T1 construct: made in house; host or cells: E. coli BL21(DE3)
T1 sequence (Q99685 1-303): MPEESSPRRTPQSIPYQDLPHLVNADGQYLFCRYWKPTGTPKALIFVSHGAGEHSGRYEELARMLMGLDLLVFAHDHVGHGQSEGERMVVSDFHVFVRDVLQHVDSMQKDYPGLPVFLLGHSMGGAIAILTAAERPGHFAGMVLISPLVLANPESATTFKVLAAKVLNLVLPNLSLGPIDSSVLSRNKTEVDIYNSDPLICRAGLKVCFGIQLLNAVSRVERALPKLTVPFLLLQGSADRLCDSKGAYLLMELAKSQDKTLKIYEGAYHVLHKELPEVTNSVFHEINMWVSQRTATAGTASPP
The assay is described as follows: Measurement of MAGL inhibitory activity (arachidonic acid production from 2-arachidonylglycerol, RapidFire-mass spectrometry). In kind it is biochemical. The note with it: test compound 10 μM; MAGL inhibitory rate. Here is the method:
The His-hMAGL obtained above was diluted with enzyme reaction buffer (10 mM Tris-HCl, pH 7.5, 1 mM EDTA, 0.025 (w/v) % Triton X-100, 0.01% Bovine serum albumin) to a concentration of 7.5 ng/mL. To each well of a 384 well assay plate (Greiner 781280) was added a solution (5 μL) of a test compound dissolved in dimethyl sulfoxide (DMSO), which was diluted with the above-mentioned enzyme reaction buffer, then His-hMAGL solution (5 μL) diluted to a concentration of 7.5 ng/mL was added, and the mixture was incubated at room temperature for 60 min. Thereafter, to each well was added 5 μL of 150 μM 2-arachidonylglycerol (Tocris Bioscience), and the mixture was incubated at room temperature for 10 min. Then, 10 μL of 2% formic acid (Wako Pure Chemical Industries, Ltd.) was added to stop the reaction. Furthermore, acetonitrile (50 μL) containing 3 μM arachidonic acid-d8 (Cayman Chemical Company) was added and the mixture was stirred.
The amount of arachidonic acid in the obtained enzyme reaction mixture was calculated by measuring by RapidFire-mass spectrometry and correcting by the amount of arachidonic acid-d8. High Throughput online solid phase extraction was performed using RapidFire 300™ system (Agilent Technologies, Inc.). Samples were loaded on SPE C4 cartridge (Agilent Technologies, Inc.) and desalted with 0.2 (v/v) % acetic acid (Wako Pure Chemical Industries, Ltd.) in ultrapure water/acetonitrile (70/30, v/v) at a flow rate of 1.5 mL/min, eluted at a flow rate of 0.5 mL/min with 0.2 (v/v) % acetic acid dissolved in acetonitrile/ultrapure water (90/10, v/v), and injected into the mass spectrometry part. The injection needle was washed with ultrapure water (500 millisecond) and acetonitrile (500 millisecond) to minimize carry-over. The suction time (injection loop 5 μL), load/cleansing time, elution time and re-equilibration time were adjusted to 300, 3000, 4250 and 1000 milliseconds, respectively, and the total cycle time was adjusted to about 10.0 seconds. The RapidFire300 system was controlled by RapidFire UI software version 3.6 (Agilent Technologies, Inc.).
The mass spectrometry of the resultant product was performed using API4000™ triple quadrupole mass spectrometer (AB SCIEX) equipped with an electrospray ion sauce (TurboIon Spray™) in a negative selected reaction monitoring (SRM) mode. The conditions of SRM are shown below. The parameters of the instrument were optimized as follows: capillary temperature 600° C., ion spray voltage −4.5 kV, collision gas 8, curtain gas 15 psi, ion source gas 1 60 psi, ion source gas 2 60 psi. The mass spectrometer was controlled by Analyst™ software version 1.5.1 (AB SCIEX). The peak area integration was analyzed using RapidFire integrator software version 3.6 (Agilent Technologies, Inc.).
MAGL inhibitory rate (%) was calculated according to the following calculation formula. (1-(arachidonic acid production amount of test compound addition group−arachidonic acid production amount of enzyme-free group)+(arachidonic acid production amount of test compound-free group−arachidonic acid production amount of enzyme-free group))×100
What is called inhibition is the relative decrease from the control value, in per cent. `O=C1NC2(CO1)CN(C(=O)O[C@H]1C[C@@H](COCc3c(F)cc(F)cc3F)C1)C2` [Example 33, cis-3-(((2,4,6-trifluorobenzyl)oxy)methyl)cyclobutyl 6-oxo-7-oxa-2,5-diazaspiro[3.4]octane-2-carboxylate]: the inhibition at 10 µM worked out at 101%.
The figure for `O=C1NC2(CO1)CN(C(=O)OC[C@H]1C[C@H](Oc3ccc(C(F)(F)F)cc3Cl)C1)C2` [Example 27, (trans-3-(2-chloro-4-(trifluoromethyl)phenoxy)cyclobutyl)methyl 6-oxo-7-oxa-2,5-diazaspiro[3.4]octane-2-carboxylate] is 100%; for `O=C1NC2(CO1)CN(C(=O)O[C@H]1C[C@H](COc3ccc(F)c(F)c3F)C1)C2` [Example 21, trans-3-((2,3,4-trifluorophenoxy)methyl)cyclobutyl 6-oxo-7-oxa-2,5-diazaspiro[3.4]octane-2-carboxylate] it is 100%.
Take `O=C1NC2(CO1)CN(C(=O)O[C@H]1C[C@@H](COc3ccc(F)cc3Cl)C1)C2` [Example 14, cis-3-((2-chloro-4-fluorophenoxy)methyl)cyclobutyl 6-oxo-7-oxa-2,5-diazaspiro[3.4]octane-2-carboxylate]: the inhibition at 10 µM was 98%.
Under `C[C@]1(OC(=O)N2CC3(COC(=O)N3)C2)C[C@@H](OCc2ccccc2)C1` [Example 58, cis-3-(benzyloxy)-1-methylcyclobutyl 6-oxo-7-oxa-2,5-diazaspiro[3.4]octane-2-carboxylate] stands 93%; under `O=C1NC2(CO1)CN(C(=O)O[C@H]1C[C@@H](OCc3ccc(F)c(F)c3)C1)C2` [Example 41, cis-3-((3,4-difluorobenzyl)oxy)cyclobutyl 6-oxo-7-oxa-2,5-diazaspiro[3.4]octane-2-carboxylate], 99%; under `O=C1NC2(CO1)CN(C(=O)O[C@H]1C[C@@H](COc3ccc(C(F)(F)F)cc3Cl)C1)C2` [Example 20, cis-3-((2-chloro-4-(trifluoromethyl)phenoxy)methyl)cyclobutyl 6-oxo-7-oxa-2,5-diazaspiro[3.4]octane-2-carboxylate], 100%.
Under `O=C1NC2(CO1)CN(C(=O)O[C@H]1C[C@@H](Oc3ccc(Cl)cc3F)C1)C2` [Example 54, cis-3-(4-chloro-2-fluorophenoxy)cyclobutyl 6-oxo-7-oxa-2,5-diazaspiro[3.4]octane-2-carboxylate] stands 100%; under `O=C1NC2(CO1)CN(C(=O)O[C@H]1CC[C@@H](Oc3ccc(C(F)(F)F)cc3F)CC1)C2` [Example 38, cis-4-(2-fluoro-4-(trifluoromethyl)phenoxy)cyclohexyl 6-oxo-7-oxa-2,5-diazaspiro[3.4]octane-2-carboxylate], 102%.
Consider `O=C1NC2(CO1)CN(C(=O)O[C@H]1C[C@H](OCc3ccccc3)C1)C2` [Example 42, trans-3-(benzyloxy)cyclobutyl 6-oxo-7-oxa-2,5-diazaspiro[3.4]octane-2-carboxylate], for which the inhibition at 10 µM turned out to be 99%.
In the case of `O=C1NC2(CO1)CN(C(=O)O[C@H]1C[C@@H](OCc3cc(F)c(F)cc3F)C1)C2` [Example 7, cis-3-((2,4,5-trifluorobenzyl)oxy)cyclobutyl 6-oxo-7-oxa-2,5-diazaspiro[3.4]octane-2-carboxylate], the inhibition at 10 µM stood at 100%.
The figure for `O=C1NC2(CO1)CN(C(=O)O[C@H]1C[C@@H](COCc3cc(F)c(F)cc3F)C1)C2` [Example 32, cis-3-(((2,4,5-trifluorobenzyl)oxy)methyl)cyclobutyl 6-oxo-7-oxa-2,5-diazaspiro [3.4]octane-2-carboxylate] is 100%; for `Cc1ccc(CO[C@H]2C[C@@H](OC(=O)N3CC4(COC(=O)N4)C3)C2)c(F)c1F` [Example 5, cis-3-((2,3-difluoro-4-methylbenzyl)oxy)cyclobutyl 6-oxo-7-oxa-2,5-diazaspiro[3.4]octane-2-carboxylate] it is 99%; for `O=C1NC2(CO1)CN(C(=O)O[C@H]1C[C@@H](COCc3ccc(F)cc3Cl)C1)C2` [Example 30, cis-3-(((2-chloro-4-fluorobenzyl)oxy)methyl)cyclobutyl 6-oxo-7-oxa-2,5-diazaspiro[3.4]octane-2-carboxylate] it is 100%.
Take `O=C1NC2(CO1)CN(C(=O)O[C@H]1C[C@H](COc3ccc(C(F)(F)F)cc3F)C1)C2` [Example 22, trans-3-((2-fluoro-4-(trifluoromethyl)phenoxy)methyl)cyclobutyl 6-oxo-7-oxa-2,5-diazaspiro[3.4]octane-2-carboxylate]: the inhibition at 10 µM was found to be 103%.
Under `O=C1NC2(CO1)CN(C(=O)O[C@H]1C[C@@H](OCc3ccc(C(F)(F)F)cc3F)C1)C2` [Example 10, cis-3-((2-fluoro-4-(trifluoromethyl)benzyl)oxy)cyclobutyl 6-oxo-7-oxa-2,5-diazaspiro[3.4]octane-2-carboxylate] stands 99%; under `O=C1NC2(CO1)CN(C(=O)O[C@H]1C[C@H](Oc3c(F)cc(F)cc3F)C1)C2` [Example 43, trans-3-(2,4,6-fluorophenoxy)cyclobutyl 6-oxo-7-oxa-2,5-diazaspiro[3.4]octane-2-carboxylate], 102%.
The figure for `O=C1NC2(CO1)CN(C(=O)O[C@H]1C[C@@H](Oc3ccc(Cl)cc3)C1)C2` [Example 47, cis-3-(4-chlorophenoxy)cyclobutyl 6-oxo-7-oxa-2,5-diazaspiro[3.4]octane-2-carboxylate] is 100%; for `O=C1NC2(CO1)CN(C(=O)O[C@H]1C[C@@H](Oc3ccc(F)cc3Cl)C1)C2` [Example 44, cis-3-(2-chloro-4-fluorophenoxy)cyclobutyl 6-oxo-7-oxa-2,5-diazaspiro[3.4]octane-2-carboxylate] it is 103%.
The figure for `C[C@]1(Oc2ccc(F)cc2Cl)C[C@@H](OC(=O)N2CC3(COC(=O)N3)C2)C1` [Example 63, cis-3-(2-chloro-4-fluorophenoxy)-3-methylcyclobutyl 6-oxo-7-oxa-2,5-diazaspiro[3.4]octane-2-carboxylate] is 100%; for `O=C1NC2(CCN(C(=O)O[C@H]3C[C@@H](COc4ccc(F)c(F)c4F)C3)C2)CO1` (stereo partly drawn) [Example 35, cis-3-((2,3,4-trifluorophenoxy)methyl)cyclobutyl 2-oxo-3-oxa-1,7-diazaspiro[4.4]nonane-7-carboxylate] it is 100%; for `O=C1NC2(CO1)CN(C(=O)OC[C@H]1C[C@@H](Oc3ccc(C(F)(F)F)cc3F)C1)C2` [Example 24, (cis-3-(2-fluoro-4-(trifluoromethyl)phenoxy)cyclobutyl)methyl 6-oxo-7-oxa-2,5-diazaspiro[3.4]octane-2-carboxylate] it is 103%.

The record behind these values is patent publication US11274101B2, “Heterocyclic compound” (Takeda Pharmaceutical Company Limited, priority 2017, dated 2022).
